Tests used:
[1] = DPPH· radical scavenging (antioxidant) assay; settings: 30 min; for Antioxidant % Inhibition (100 μM): DPPH· scavenging at 100 μM; for EC50: DPPH· scavenging
Procedure: The DPPH· scavenging was assayed according to the reported method. The DPPH radical scavenging test was performed in 96-well microplates. Testing materials (compounds 1–11) were added to 150 μL (0.16 mmol/L) DPPH solution in MeOH at a range of 50 μL solutions of different concentrations (2, 25, 50 and 100 μM). After 30 min, absorbance at 517 nm was measured and the percentage of activity was calculated. Ascorbic acid was used as a positive control.

[2] = molecular target: α-glucosidase; experiment: α-glucosidase inhibitory activity assay (p-nitrophenyl glycoside substrate, 96-well, 405 nm); type: biochemical; settings: PBS pH 7.0, 37 °C
Procedure: The α-glucosidase inhibitory activity was assayed according to the reported method. The inhibitory activity of α-glucosidase was tested in the 96-well plated with […] PBS (KH2PO4-K2HPO4, pH 7.0) buffer solution each. […] The assay was conducted in a 100 μL reaction system containing 20 μL enzyme stock solution, 69 μL PBS buffers and 1 μL of DMSO or testing materials. After 10 min incubation at 37 °C, 10 μL of the substrate was added and incubated for 20 min at 37 °C. The Absorbance which measured by a BIO-RAD (iMark) microplate reader at 405 nm was used to calculate the inhibitory activity according to the equation:η (%) = [(B − S)/B] × 100%(1) η (%) is the percentage of inhibition; B is the assay medium with DMSO; S is the assay medium with compound. The results of IC50 values were calculated by the nonlinear regression analysis.

Row | Compound | Antioxidant % Inhibition (100 μM) [1] | IC50 [2] | EC50 [1] | melting point
1 | CC1=C(C)C2(C)C(=O)C(O)(C1=O)C1(C)C(=O)C2(O)C(=O)C(C)=C1C [Compound 2, dibefurin B] | <50% | > 50 µM |  | 
2 | CC1=CC2C=C(C)C(C)C3C(CC(C)C)NC(=O)C23C(=O)C2C3OC(c4c(C)c(O)c(O)c(O)c43)C2C(=O)CCC1 (stereo not drawn) [Compound 1, asperchalasine I] | 56% | 17.1 µM | 77.8 µM | 
3 | Cc1c(O)c(O)c(O)c(C=O)c1-c1cc2c(C=O)c(C)c(O)c(O)c2o1 [Compound 8, epicoccolide B] | 89% | 26.7 µM | 16.3 µM | 
4 | 1,3-dihydro-5-methoxy-7-methylisobenzofuran [Compound 6] | 65% | > 50 µM | 59.1 µM | 
5 | CC(O)C1OCc2c(O)cccc21 [Compound 3, (R)-9-((R)-10-hydroxyethyl)-7,9-dihydroisobenzofuran-1-ol] | <50% | > 50 µM |  | 89.8 to 91.9 °C
6 | Cc1c(O)c(O)c(O)c2c1COC2=O [Compound 5, epicoccone B] | <50% | > 50 µM |  | 
7 | O=C1O[C@H]([C@@H](O)CO)C(O)=C1O [Ascorbic acid, ascorbic acid, reference compound] | 92% |  | 22.4 µM | 
8 | COC(=O)c1c(C)c(O)c(O)c(O)c1C=O [Compound 4, 2-methoxycarbonyl-4,5,6-trihydroxy-3-methyl-benzaldehyde] | 57% | > 50 µM | 85.8 µM | 95.9 to 97.8 °C
9 | Cc1c(O)cc(O)c(C(=O)OC[C@@H](O)[C@H](O)[C@H](O)CO)c1C [Compound 7, paeciloside A] | <50% | > 50 µM |  | 

Source: paper PMC6723402, “Secondary Metabolites with α-Glucosidase Inhibitory Activity from the Mangrove Fungus Mycosphaerella sp. SYSU-DZG01” (Marine Drugs, 2019)
